Laboratory results from PubChem BioAssay AID248 (DTP/NCI, 2004).
Values joined by “and” are separate entries in the source; they are usually repeats but may differ in a detail not shown here. Identical values can stand only once. Inconclusive results and toxic doses are left out.

System: L1210 leukemia ip in BDF1 mice, survival T/C
Assay: NCI In Vivo Anticancer Drug Screen. Data for tumor model L1210 Leukemia (intraperitoneal) in B6D2F1 (BDF1) mice
Conditions: endpoint: mean survival time, higher = longer survival
Outline: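 Transplantable tumor model; survival measured in treated vs vehicle control mice. Value = treated/control.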

Cc1[nH]c(=O)n(C)c(=O)c1C was tested, and the T/C (dose: 100.0 mg/kg/injection, schedule: Q01DX001 (ip), vehicle: Klucel (hydroxypropylcellulose) (HPC)) was 109 % of control, the T/C (dose: 200.0 mg/kg/injection, schedule: Q01DX001 (ip), vehicle: Klucel (hydroxypropylcellulose) (HPC)) was 106 % of control and the T/C (dose: 400.0 mg/kg/injection, schedule: Q01DX001 (ip), vehicle: Klucel (hydroxypropylcellulose) (HPC)) was 104 % of control.
With CCC(O)(CC)C(C)C the T/C (dose: 90.0 mg/kg/injection, schedule: Q01DX001 (ip), vehicle: saline) was 97 % of control, the T/C (dose: 100.0 mg/kg/injection, schedule: Q01DX001 (ip), vehicle: saline) was 102 % of control and the T/C (dose: 130.0 mg/kg/injection, schedule: Q01DX001 (ip), vehicle: saline) was 92 % of control. For the same compound, the T/C (dose: 300.0 mg/kg/injection, schedule: Q01DX001 (ip), vehicle: saline) was 96 % of control and the T/C (dose: 400.0 mg/kg/injection, schedule: Q01DX001 (ip), vehicle: saline) was 96 % of control.
In the case of CC[C@@]1(O)C(=O)OCc2c1cc1n(c2=O)Cc2cc3cc(O)ccc3nc2-1, the T/C (dose: 0.15 mg/kg/injection, schedule: Q01DX015 (ip), vehicle: saline) is reported as 151 % of control, the T/C (dose: 0.22 mg/kg/injection, schedule: Q01DX015 (ip), vehicle: saline) is reported as 157 % of control and the T/C (dose: 0.34 mg/kg/injection, schedule: Q01DX015 (ip), vehicle: saline) is reported as 165 % of control. The T/C (dose: 0.51 mg/kg/injection, schedule: Q01DX015 (ip), vehicle: saline) was 233 % of control, the T/C (dose: 0.77 mg/kg/injection, schedule: Q01DX015 (ip), vehicle: saline) was 157 % of control and the T/C (dose: 1.0 mg/kg/injection, schedule: Q01DX009 (ip), vehicle: saline) was 185 % of control. The T/C (dose: 1.16 mg/kg/injection, schedule: Q01DX015 (ip), vehicle: saline) was 161 % of control, the T/C (dose: 1.75 mg/kg/injection, schedule: Q01DX015 (ip), vehicle: saline) was 177 % of control and the T/C (dose: 2.0 mg/kg/injection, schedule: Q01DX001 (ip), vehicle: saline) was 111 % of control. For the same compound, the T/C (dose: 2.0 mg/kg/injection, schedule: Q01DX009 (ip), vehicle: saline) was 229 % of control, the T/C (dose: 2.0 mg/kg/injection, schedule: Q01DX009 (oral), vehicle: saline) was 105 % of control and 108 % of control and the T/C (dose: 3.0 mg/kg/injection, schedule: Q01DX009 (oral), vehicle: saline) was 114 % of control and 115 % of control. For the same compound, the T/C (dose: 4.0 mg/kg/injection, schedule: Q01DX001 (ip), vehicle: saline) was 164 % of control, the T/C (dose: 7.0 mg/kg/injection, schedule: Q01DX009 (oral), vehicle: saline) was 101 % of control and 120 % of control and the T/C (dose: 8.0 mg/kg/injection, schedule: Q01DX001 (ip), vehicle: saline) was 242 % of control. The T/C (dose: 10.0 mg/kg/injection, schedule: Q01DX009 (oral), vehicle: saline) was 121 % of control, the T/C (dose: 15.0 mg/kg/injection, schedule: Q01DX009 (oral), vehicle: saline) was 115 % of control and the T/C (dose: 16.0 mg/kg/injection, schedule: Q01DX001 (ip), vehicle: saline) was 88 % of control. For the same compound, the T/C (dose: 12.0 micrograms/kg/injection, schedule: Q01DX015 (ip), vehicle: saline) was 113 % of control, the T/C (dose: 19.0 micrograms/kg/injection, schedule: Q01DX015 (ip), vehicle: saline) was 111 % of control and the T/C (dose: 29.0 micrograms/kg/injection, schedule: Q01DX015 (ip), vehicle: saline) was 118 % of control. The T/C (dose: 44.0 micrograms/kg/injection, schedule: Q01DX015 (ip), vehicle: saline) was 120 % of control and the T/C (dose: 100.0 micrograms/kg/injection, schedule: Q01DX015 (ip), vehicle: saline) was 150 % of control.
With COc1cc2ccc(CC(=O)NCc3ccccc3)cc2cc1OC the T/C (dose: 100.0 mg/kg/injection, schedule: Q01DX009 (ip), vehicle: saline) was 94 % of control, the T/C (dose: 100.0 mg/kg/injection, schedule: Q04DX003 (ip), vehicle: saline) was 91 % of control and the T/C (dose: 200.0 mg/kg/injection, schedule: Q01DX009 (ip), vehicle: saline) was 89 % of control. For the same compound, the T/C (dose: 200.0 mg/kg/injection, schedule: Q04DX003 (ip), vehicle: saline) was 86 % of control, the T/C (dose: 400.0 mg/kg/injection, schedule: Q01DX009 (ip), vehicle: saline) was 101 % of control and the T/C (dose: 400.0 mg/kg/injection, schedule: Q04DX003 (ip), vehicle: saline) was 101 % of control.
In the case of CCc1nc(=S)c2ncn(CC)c2[nH]1, the T/C (dose: 100.0 mg/kg/injection, schedule: Q04DX003 (ip), vehicle: saline with Tween-80) is reported as 106 % of control, the T/C (dose: 200.0 mg/kg/injection, schedule: Q04DX003 (ip), vehicle: saline with Tween-80) is reported as 96 % of control and the T/C (dose: 400.0 mg/kg/injection, schedule: Q04DX003 (ip), vehicle: saline with Tween-80) is reported as 90 % of control.
